# Measured values published in US7354711B2, “Methods for inhibiting immunostimulatory DNA associated responses” (University of Iowa Research Foundation, priority 1997, dated 2008).
# B1: IL-6: murine IL-6 purchased from PharMingen (protein, UniProt P08505 25-211, looked up)
# Interleukin-6: FPTSQVRRGDFTEDTTPNRPVYTTSQVGGLITHVLWEIVEMRKELCNGNSDCMNNDDALAENNLKLPEIQRNDGCYQTGYNQEICLLKISSGLLEYHSYLEYMKNNLKDNKKDKARVLQRDTETLIHIFNQEVKDLHKIVLPTPISNALLTDKLESQKEWLRTKTIQFILKSLEEFLKVTLRSTRQT
# Assays:
# WEHI 231 cells [1] = experiment: Inhibition of CpG-ODN 1760 protection against α-sIgM-induced inhibition of [3H] thymidine uptake; format: cell-based, mouse; details: for Inhibition of the CpG-ODN effect (FIG. 1): at nanomolar concentrations, 10 μg/mL α-sIgM, 6 μg/mL ODN 1760; for Fold: activity expressed as a fraction of activity of chloroquine / Activity: -log10 of the concentration (M) required for half maximal inhibition of CpG-ODN effect on [3H] thymidine uptake in the presence of α-sIgM: Table 2, 4-aminoquinolines; for Activity: -log10 of the concentration (M) required for half maximal inhibition of CpG-ODN effect on [3H] thymidine uptake in the presence of α-sIgM / Activity,-log10 (concentration (M) for half maximal inhibition of CpG-ODN effect on [3H] thymidine uptake in the presence of α-sIgM): WEHI 231 cells; for vs. Chloroquine, fold / Activity,-log10 (concentration (M) for half maximal inhibition of CpG-ODN effect on [3H] thymidine uptake in the presence of α-sIgM): Table 3, 9-aminoacridines; for Effect on CpG-ODN action (FIG. 1): at concentrations less than 10 μM
# Description: The assay of [^3H] Thymidine incorporation was carried out as follows. WEHI 231 cells (200 μL at 2×10^5/milliliter, in duplicate or triplicate) were incubated in a 96-well plate (Costar, Cambridge Mass.). Additions were made as indicated. After incubating for 16 hours, 0.5 μCi [methyl-^3H] thymidine (2 Ci/millimole, DuPont NEN, Boston Mass.) was added to each well, and the cells were incubated for another 4 hours. Cellular DNA was then captured onto glass fiber filters (Whatman 934AH) using a cell harvester (Brandel, Gaithersberg Md.). The filters were dried, placed into plastic scintillation vials with 10 milliliters of scintillation cocktail (EconoSafe, Research Products International, Mount Prospect Ill.), and counted in a liquid scintillation counter (Beckman LS-3133 T). The ^3H recovered on the filter was expressed as a fraction of the ^3H added.
# Referring to experiments summarized in FIG. 1, WEHI 231 cells (ca. 2×10^5 per milliliter) were incubated for 16 hours at 37° C. with 10 μgrams/milliliter α-sIgM, 6 μgrams/milliliter ODN 1760, and the indicated concentration of the compound. After 16 hours, 0.5 μCi [^3H] thymidine was added. After 4 more hours incubation, the cellular DNA was harvested onto glass fiber filters. The dry filters were counted in a liquid scintillation counter.
# Each experimental point was the mean of at least duplicate measurements.
# Referring to the experiments summarized in FIG. 3, 10 μgrams/milliliter α-sIgM and the indicated concentrations of ODN 1760 and quinacrine were added simultaneously to WEHI 231 cells. Thymidine incorporation was estimated at 16 hours as described for Example 1.
# Referring to the experiments summarized in FIG. 4, WEHI 231 cells were incubated with α-sIgM and ODN 1760. At times thereafter 0.1 μM quinacrine was added (data shown in the left three bars). Cells were incubated with 10 μgrams/milliliter (α-sIgM and ODN 1760 (6 μgrams/milliliter, phosphorothioate or a phosphodiester ODN with the same sequence as 1760 (PD ODN) (30 μM at time 0 hours and 8 hours; data represented in right six bars in FIG. 4). [^3H] thymidine incorporation was estimated at 16 hours.
# The symbol — indicates no change. Me and Et indicate —CH3 and —CH2CH3 respectively. Aromatic substituents are in the para position except as indicated. The activity is —log10 of the concentration (M) required for half maximal inhibition of CpG-ODN effect on [^3H] thymidine uptake in the presence of α-sIgM.
# 7TD1 cells = experiment: Inhibition of 7TD1 cell growth; format: cell-based, mouse
# Description: One particularly useful cell line for the assay of immunostimulatory DNA action is the mouse-mouse hybridoma plasma cell line 7TD1(ATTC #CRL 1851), which requires exoqenous IL-6 for growth, and has been used to characterize and assay IL-6 (Papadopolous et al., 1995. J. Clin. Lab. Anal. 9:234-7; Krakauer, 1993. J. Immunoassay 14:267-77).
# The 7TD1 cells were grown in RPMI 1640 supplemented with 10% fetal bovine serum (heat inactivated at 65° C., 1 hour), 0.3 grams/Liter L-glutamine, 50 milligrams/Liter gentamycin, 0.05 mM 2-mercaptoethanol, and 10 units per milliliter murine IL-6 in a 37° C. humid atmosphere with 5% CO2. Viable 7TD1 cells were counted in a hemocytometer chamber in duplicate after dilution with 0.4% trypan blue.
# The 7TD1 cells were incubated for five days and were washed twice with medium to remove IL-6, and resuspended at 2×10^4 per milliliter in medium. Cell counts were performed and the percent inhibition of growth was computed. The term “anti” refers to 40 nanograms/milliliter neutralizing antibody to IL-6.
# WEHI 231 cells [2] = experiment: CpG-ODN-induced IL-6 synthesis (ELISA); format: cell-based, mouse; details: 30 nM
# Description: The assay of IL6 was generally carried out as follows. […] After 24 hours, the IL-6 content of the supernatant was assayed by enzyme-linked immunoassay using two monoclonal antibodies in a sandwich technique as described by the manufacturer, using standards supplied (PharMingen, San Diego Calif.).
# [3] = test system: human peripheral blood mononuclear cells (PBMC); experiment: ODN 1760-induced IL-6 production in human peripheral blood mononuclear cells; format: cell-based; details: 24 hours
# Description: Referring to the experiments summarized in FIG. 9, human peripheral blood mononuclear cells (PBMC) from three donors were incubated with or without ODN 1760 and the indicated concentration of test compound. After 24 hours, the concentration of IL-6 was determined in the supernatant. The figure indicates the percentage of IL-6 in reference to ODN-treated cells. The IL-6 amounts for control sample per donor were as follows: donor 1, 203 picograms/milliliter; donor 2, 71.5 picograms/milliliter; donor 3, 465 picograms/milliliter. IL-6 measured from untreated cells was 0-21 picograms/milliliter. Results from the three donors were averaged, and error bars indicate 1 standard deviation.
# [4] = test system: multi-drug resistance pump; experiment: Potency with inhibition of the multi-drug resistance pump; format: cell-based
# human mononuclear cells = experiment: ODN 1760-induced [3H] thymidine incorporation in human mononuclear cells; format: cell-based; details: unfractionated human peripheral blood cells, four days
# Description: [^3H] thymidine incorporation (18 hour pulse) was then measured. […] Thymidine incorporation for untreated samples was less than 0.05%. Samples from three donors were averaged, and error bars indicate 1 standard deviation.
# [5] = 6 μg/mL ODN 1760 + 1 μg chloroquine (so in the source)
# [6] = 6 μg/mL ODN 1760 + 3μ chloroquine (so in the source)
molecule,measurement,setting,value
CCN(CC)CCCC(C)Nc1ccnc2cc(Cl)ccc12 (centres unmarked) [chloroquine],Inhibition of the CpG-ODN effect (FIG. 1),WEHI 231 cells [1],completely inhibited
same,7TD1 cells/μL,7TD1 cells; [5],7 cells/μL
same,% Growth Inhibition,7TD1 cells; [5],98.1%
same,7TD1 cells/μL,7TD1 cells; [6],10 cells/μL
same,% Growth Inhibition,7TD1 cells; [6],97.5%
same,7TD1 cells/μL,7TD1 cells; 10 μg/mL IL-6 + 1 μM compound,610 cells/μL
same,% Growth Inhibition,7TD1 cells; 10 μg/mL IL-6 + 1 μM compound,31.2%
same,% Growth Inhibition,7TD1 cells; 10 μg/mL IL-6 + 3 μM compound,38.3%
same,Effect on IL-6-induced growth,"7TD1 cells; 7TD1 cells, IL-6",little effect
same,Effect on growth stimulation by CpG-ODN,"7TD1 cells; 7TD1 cells, ODN 1760",blocked
same,Reversal of ODN 1760 effect on IL-6 elaboration,WEHI 231 cells [2],completely reversed
same,Effect on ODN 1760-induced IL-6 production (FIG. 9),[3],inhibited
same,Change of potency on inhibition of the multi-drug resistance pump,[4],magnified
same,Effect on ODN 1760-induced thymidine incorporation (FIG. 8),human mononuclear cells,inhibited
CCN(CC)CCCC(CCl)Nc1ccnc2cc(Cl)ccc12 (centres unmarked) [compound 56],Fold: activity expressed as a fraction of activity of chloroquine,WEHI 231 cells [1],1.45 fold
same,Activity: -log10 of the concentration (M) required for half maximal inhibition of CpG-ODN effect on [3H] thymidine uptake in the presence of α-sIgM,WEHI 231 cells [1],7.12
"COc1ccc2nc3cc(Cl)ccc3c(NCCCNCCCCNCCCNc3c4ccc(Cl)cc4nc4ccc(OC)cc34)c2c1 [compound 58, bis-(6-chloro-2-methoxy-9-acridinyl)spermine]","vs. Chloroquine, fold",WEHI 231 cells [1],0.26 fold
same,"Activity,-log10 (concentration (M) for half maximal inhibition of CpG-ODN effect on [3H] thymidine uptake in the presence of α-sIgM)",WEHI 231 cells [1],6.38
"COc1ccc2nc3cc(Cl)ccc3c(N)c2c1 [compound 59, 9-amino-6-chloro-2-methoxyacridine]","vs. Chloroquine, fold",WEHI 231 cells [1],1.00 fold
same,"Activity,-log10 (concentration (M) for half maximal inhibition of CpG-ODN effect on [3H] thymidine uptake in the presence of α-sIgM)",WEHI 231 cells [1],6.96
CCN(CC)CCC(CNc1ccnc2cc(Cl)ccc12)c1ccc(OC)cc1 (centres unmarked) [compound 61],Fold: activity expressed as a fraction of activity of chloroquine,WEHI 231 cells [1],0.79 fold
same,Activity: -log10 of the concentration (M) required for half maximal inhibition of CpG-ODN effect on [3H] thymidine uptake in the presence of α-sIgM,WEHI 231 cells [1],6.86
CCN(CC)CCCC(C)Nc1c(C)cnc2cccc(Br)c12 (centres unmarked) [compound 62],Fold: activity expressed as a fraction of activity of chloroquine,WEHI 231 cells [1],0.35 fold
same,Activity: -log10 of the concentration (M) required for half maximal inhibition of CpG-ODN effect on [3H] thymidine uptake in the presence of α-sIgM,WEHI 231 cells [1],6.51
CCN(CC)CCCC(C)Nc1c(C)cnc2c(OC)c(Cl)ccc12 (centres unmarked) [compound 63],Fold: activity expressed as a fraction of activity of chloroquine,WEHI 231 cells [1],0.10 fold
same,Activity: -log10 of the concentration (M) required for half maximal inhibition of CpG-ODN effect on [3H] thymidine uptake in the presence of α-sIgM,WEHI 231 cells [1],5.95
CCN(CC)CCCC(C)Nc1ccnc2cc(Oc3ccccc3)ccc12 (centres unmarked) [compound 64],Fold: activity expressed as a fraction of activity of chloroquine,WEHI 231 cells [1],0.62 fold
same,Activity: -log10 of the concentration (M) required for half maximal inhibition of CpG-ODN effect on [3H] thymidine uptake in the presence of α-sIgM,WEHI 231 cells [1],6.75
CCN(CC)CCC(CNc1c(C)cnc2cc(Cl)ccc12)c1ccc(Cl)c(Cl)c1 (centres unmarked) [compound 65],Fold: activity expressed as a fraction of activity of chloroquine,WEHI 231 cells [1],0.58 fold
same,Activity: -log10 of the concentration (M) required for half maximal inhibition of CpG-ODN effect on [3H] thymidine uptake in the presence of α-sIgM,WEHI 231 cells [1],6.72
CN(C)C(C)(C)CCCNc1ccnc2cc(Cl)ccc12 [compound 68],Fold: activity expressed as a fraction of activity of chloroquine,WEHI 231 cells [1],0.81 fold
same,Activity: -log10 of the concentration (M) required for half maximal inhibition of CpG-ODN effect on [3H] thymidine uptake in the presence of α-sIgM,WEHI 231 cells [1],6.87
CCOc1cc2c(NC(C)CCCN(CC)CC)c(C)cnc2cc1Cl (centres unmarked) [compound 71],Fold: activity expressed as a fraction of activity of chloroquine,WEHI 231 cells [1],0.09 fold
same,Activity: -log10 of the concentration (M) required for half maximal inhibition of CpG-ODN effect on [3H] thymidine uptake in the presence of α-sIgM,WEHI 231 cells [1],5.90
"CCN(CCO)CCCC(C)Nc1ccnc2cc(Cl)ccc12 (centres unmarked) [hydroxychloroquine, reference compound]",Inhibition of the CpG-ODN effect (FIG. 1),WEHI 231 cells [1],completely inhibited
"COc1cc(NC(C)CCCN)c2ncccc2c1 (centres unmarked) [primaquine, reference compound]",Effect on CpG-ODN action (FIG. 1),WEHI 231 cells [1],little effect
"C=C[C@H]1C[N@@]2CC[C@H]1C[C@H]2[C@H](O)c1ccnc2ccc(OC)cc12 [quinine, reference compound]",Effect on CpG-ODN action (FIG. 1),WEHI 231 cells [1],little effect
B1,7TD1 cells/μL,"7TD1 cells; 10 μg/mL IL-6 alone, five days",887 cells/μL
